Test results from the NIST ThermoML archive (doi:10.1021/acs.jced.8b00011).
“And” between values parts separate entries of the source, which are not always exact repeats. Equal values may be shown once.

Conditions: Liquid; for mass density: Vibrating tube method; for electrical conductivity: electrochemical impedance spectroscopy

CCCCC[P+](CC)(CC)CC.O=S(=O)([N-]S(=O)(=O)C(F)(F)F)C(F)(F)F
Conditions	electrical conductivity	mass density
323.15 K, 5000 kPa	–	1286.05 kg/m3
323.15 K, 10000 kPa	–	1289.93 kg/m3
323.15 K, 15000 kPa	–	1293.65 kg/m3
323.15 K, 20000 kPa	–	1297.31 kg/m3
323.15 K, 25000 kPa	–	1300.84 kg/m3
323.15 K, 30000 kPa	–	1304.31 kg/m3
323.15 K, 35000 kPa	–	1307.72 kg/m3
323.15 K, 40000 kPa	–	1311.03 kg/m3
323.15 K, 45000 kPa	–	1314.23 kg/m3
323.15 K, 50000 kPa	–	1317.43 kg/m3
328.15 K, 101.33 kPa	0.515 S/m and 0.516 S/m	–
333.15 K, 100 kPa	–	1273.44 kg/m3 [middle of 6 runs]
333.15 K, 101.33 kPa	0.598 S/m and 0.6 S/m	–
333.15 K, 1000 kPa	–	1274.41 kg/m3
333.15 K, 5000 kPa	–	1277.68 kg/m3
333.15 K, 10000 kPa	–	1281.66 kg/m3
333.15 K, 15000 kPa	–	1285.53 kg/m3
333.15 K, 20000 kPa	–	1289.3 kg/m3
333.15 K, 25000 kPa	–	1292.91 kg/m3
333.15 K, 30000 kPa	–	1296.47 kg/m3
333.15 K, 35000 kPa	–	1299.98 kg/m3
333.15 K, 40000 kPa	–	1303.38 kg/m3
333.15 K, 45000 kPa	–	1306.68 kg/m3
333.15 K, 50000 kPa	–	1309.96 kg/m3
338.15 K, 101.33 kPa	0.687 S/m and 0.689 S/m	–
343.15 K, 100 kPa	–	1264.95 kg/m3 [middle of 6 runs]
343.15 K, 101.33 kPa	0.784 S/m and 0.786 S/m	–
343.15 K, 1000 kPa	–	1265.61 kg/m3
343.15 K, 5000 kPa	–	1269.03 kg/m3
343.15 K, 10000 kPa	–	1273.12 kg/m3
343.15 K, 15000 kPa	–	1277.12 kg/m3
343.15 K, 20000 kPa	–	1280.98 kg/m3
343.15 K, 25000 kPa	–	1284.76 kg/m3
343.15 K, 30000 kPa	–	1288.39 kg/m3
343.15 K, 35000 kPa	–	1291.99 kg/m3
343.15 K, 40000 kPa	–	1295.5 kg/m3
343.15 K, 45000 kPa	–	1298.89 kg/m3
343.15 K, 50000 kPa	–	1302.23 kg/m3
348.15 K, 101.33 kPa	0.885 S/m and 0.887 S/m	–
348.16 K, 101.33 kPa	0.877 S/m	–
353.15 K, 100 kPa	–	1256.32 kg/m3 [middle of 5 runs]
353.15 K, 101.33 kPa	0.999 S/m and 1 S/m	–
353.15 K, 1000 kPa	–	1256.5 kg/m3
353.15 K, 5000 kPa	–	1260.01 kg/m3
353.15 K, 10000 kPa	–	1264.27 kg/m3
353.15 K, 15000 kPa	–	1268.38 kg/m3
353.15 K, 20000 kPa	–	1272.39 kg/m3
353.15 K, 25000 kPa	–	1276.24 kg/m3
353.15 K, 30000 kPa	–	1280.04 kg/m3
353.15 K, 35000 kPa	–	1283.68 kg/m3
353.15 K, 40000 kPa	–	1287.28 kg/m3
353.15 K, 45000 kPa	–	1290.77 kg/m3
353.15 K, 50000 kPa	–	1294.22 kg/m3
363.15 K, 100 kPa	–	1248.72 kg/m3 [middle of 4 runs]

Conditions	electrical conductivity [S/m]	viscosity
323.15 K, 5900 kPa, Frequency=0 MHz	0.411	–
323.15 K, 10600 kPa, Falling or rolling sphere viscometry	–	33.85 mPa·s
323.15 K, 10600 kPa, Frequency=0 MHz	0.393	–
323.15 K, 20500 kPa, Falling or rolling sphere viscometry	–	37.97 mPa·s
323.15 K, 30600 kPa, Falling or rolling sphere viscometry	–	42.53 mPa·s
323.15 K, 40300 kPa, Falling or rolling sphere viscometry	–	47.23 mPa·s
323.15 K, 50500 kPa, Falling or rolling sphere viscometry	–	52.72 mPa·s
323.15 K, 60300 kPa, Falling or rolling sphere viscometry	–	58.3 mPa·s
323.15 K, 77000 kPa, Frequency=0 MHz	0.211	–
323.15 K, 80500 kPa, Falling or rolling sphere viscometry	–	71.43 mPa·s
323.15 K, 100200 kPa, Falling or rolling sphere viscometry	–	86.46 mPa·s
323.15 K, 120600 kPa, Falling or rolling sphere viscometry	–	104.7 mPa·s
323.15 K, 126900 kPa, Frequency=0 MHz	0.138	–
323.15 K, 140600 kPa, Falling or rolling sphere viscometry	–	125.7 mPa·s
323.15 K, 160500 kPa, Falling or rolling sphere viscometry	–	149.6 mPa·s
323.15 K, 180500 kPa, Falling or rolling sphere viscometry	–	178.5 mPa·s
323.15 K, 200300 kPa, Falling or rolling sphere viscometry	–	210.1 mPa·s
323.15 K, 201300 kPa, Frequency=0 MHz	0.0751	–
323.15 K, 210900 kPa, Falling or rolling sphere viscometry	–	232.2 mPa·s
323.15 K, 225200 kPa, Frequency=0 MHz	0.0625	–
323.15 K, 250100 kPa, Frequency=0 MHz	0.0517	–
323.16 K, 14400 kPa, Frequency=0 MHz	0.378	–
323.16 K, 20500 kPa, Frequency=0 MHz	0.356	–
323.16 K, 25800 kPa, Frequency=0 MHz	0.338	–
323.16 K, 30200 kPa, Frequency=0 MHz	0.324	–
323.16 K, 40000 kPa, Frequency=0 MHz	0.295	–
323.16 K, 49900 kPa, Frequency=0 MHz	0.269	–
333.15 K, 100 kPa, Concentric cylinders viscometry	–	21.51 mPa·s
333.15 K, 100 kPa, Falling or rolling sphere viscometry	–	21.43 mPa·s [middle of 4 runs]
333.15 K, 700 kPa, Falling or rolling sphere viscometry	–	21.55 mPa·s
333.15 K, 10400 kPa, Falling or rolling sphere viscometry	–	23.8 mPa·s
333.15 K, 10600 kPa, Falling or rolling sphere viscometry	–	24.11 mPa·s
333.15 K, 19700 kPa, Falling or rolling sphere viscometry	–	26.33 mPa·s
333.15 K, 20300 kPa, Falling or rolling sphere viscometry	–	26.81 mPa·s
333.15 K, 30600 kPa, Falling or rolling sphere viscometry	–	29.93 mPa·s and 29.71 mPa·s
333.15 K, 40300 kPa, Falling or rolling sphere viscometry	–	32.65 mPa·s
333.15 K, 40600 kPa, Falling or rolling sphere viscometry	–	33.21 mPa·s
333.15 K, 50400 kPa, Falling or rolling sphere viscometry	–	36.22 mPa·s
333.15 K, 50600 kPa, Falling or rolling sphere viscometry	–	36.73 mPa·s
333.15 K, 60500 kPa, Falling or rolling sphere viscometry	–	40.1 mPa·s
333.15 K, 60600 kPa, Falling or rolling sphere viscometry	–	40.52 mPa·s
333.15 K, 80200 kPa, Falling or rolling sphere viscometry	–	48.82 mPa·s
333.15 K, 99600 kPa, Falling or rolling sphere viscometry	–	58.36 mPa·s
343.15 K, 100 kPa, Concentric cylinders viscometry	–	15.99 mPa·s
343.15 K, 100 kPa, Falling or rolling sphere viscometry	–	15.89 mPa·s and 15.97 mPa·s
348.14 K, 10700 kPa, Frequency=0 MHz	0.8	–
348.14 K, 225100 kPa, Frequency=0 MHz	0.167	–
348.15 K, 100 kPa, Falling or rolling sphere viscometry	–	13.81 mPa·s [middle of 7 runs]
348.15 K, 600 kPa, Falling or rolling sphere viscometry	–	13.91 mPa·s
348.15 K, 1100 kPa, Frequency=0 MHz	0.871	–
348.15 K, 1700 kPa, Frequency=0 MHz	0.865	–
348.15 K, 3100 kPa, Frequency=0 MHz	0.855	–
348.15 K, 5100 kPa, Frequency=0 MHz	0.84	–
348.15 K, 10500 kPa, Falling or rolling sphere viscometry	–	15.46 mPa·s
348.15 K, 15700 kPa, Frequency=0 MHz	0.766	–
348.15 K, 20600 kPa, Falling or rolling sphere viscometry	–	17.36 mPa·s
348.15 K, 20800 kPa, Frequency=0 MHz	0.734	–
348.15 K, 25700 kPa, Frequency=0 MHz	0.704	–
348.15 K, 30600 kPa, Falling or rolling sphere viscometry	–	18.78 mPa·s
348.15 K, 30800 kPa, Frequency=0 MHz	0.675	–
348.15 K, 40200 kPa, Frequency=0 MHz	0.625	–
348.15 K, 40700 kPa, Falling or rolling sphere viscometry	–	20.72 mPa·s
348.15 K, 50700 kPa, Falling or rolling sphere viscometry	–	22.73 mPa·s
348.15 K, 51400 kPa, Falling or rolling sphere viscometry	–	22.92 mPa·s
348.15 K, 60700 kPa, Falling or rolling sphere viscometry	–	25.33 mPa·s
348.15 K, 70400 kPa, Falling or rolling sphere viscometry	–	27.64 mPa·s
348.15 K, 76000 kPa, Frequency=0 MHz	0.473	–
348.15 K, 80600 kPa, Falling or rolling sphere viscometry	–	29.75 mPa·s
348.15 K, 89800 kPa, Falling or rolling sphere viscometry	–	32.25 mPa·s
348.15 K, 99100 kPa, Falling or rolling sphere viscometry	–	34.86 mPa·s
348.15 K, 100500 kPa, Falling or rolling sphere viscometry	–	35.04 mPa·s
348.15 K, 125700 kPa, Falling or rolling sphere viscometry	–	42.64 mPa·s
348.15 K, 126600 kPa, Falling or rolling sphere viscometry	–	43.88 mPa·s
348.15 K, 126600 kPa, Frequency=0 MHz	0.326	–
348.15 K, 150600 kPa, Falling or rolling sphere viscometry	–	52.08 mPa·s
348.15 K, 150800 kPa, Falling or rolling sphere viscometry	–	52.23 mPa·s
348.15 K, 152400 kPa, Frequency=0 MHz	0.272	–
348.15 K, 175600 kPa, Falling or rolling sphere viscometry	–	63.12 mPa·s
348.15 K, 199600 kPa, Falling or rolling sphere viscometry	–	75.5 mPa·s
348.15 K, 200900 kPa, Frequency=0 MHz	0.196	–
348.15 K, 237000 kPa, Falling or rolling sphere viscometry	–	99.1 mPa·s
348.15 K, 242900 kPa, Falling or rolling sphere viscometry	–	104.9 mPa·s
348.15 K, 250900 kPa, Frequency=0 MHz	0.141	–
348.16 K, 100 kPa, Frequency=0 MHz	0.877	–
348.16 K, 50000 kPa, Frequency=0 MHz	0.577	–
348.16 K, 103000 kPa, Frequency=0 MHz	0.384	–
348.16 K, 176100 kPa, Frequency=0 MHz	0.231	–
353.15 K, 100 kPa, Concentric cylinders viscometry	–	12.27 mPa·s
353.15 K, 100 kPa, Falling or rolling sphere viscometry	–	12 mPa·s and 11.96 mPa·s
363.15 K, 100 kPa, Concentric cylinders viscometry	–	9.672 mPa·s
363.15 K, 100 kPa, Falling or rolling sphere viscometry	–	9.358 mPa·s and 9.337 mPa·s and 9.414 mPa·s
363.15 K, 9700 kPa, Falling or rolling sphere viscometry	–	10.37 mPa·s
363.15 K, 20100 kPa, Falling or rolling sphere viscometry	–	11.57 mPa·s
363.15 K, 20500 kPa, Falling or rolling sphere viscometry	–	11.52 mPa·s
363.15 K, 30200 kPa, Falling or rolling sphere viscometry	–	12.72 mPa·s
363.15 K, 39200 kPa, Falling or rolling sphere viscometry	–	13.83 mPa·s
363.15 K, 49400 kPa, Falling or rolling sphere viscometry	–	15.21 mPa·s
363.15 K, 59100 kPa, Falling or rolling sphere viscometry	–	16.63 mPa·s
363.15 K, 80200 kPa, Falling or rolling sphere viscometry	–	19.84 mPa·s
363.15 K, 102200 kPa, Falling or rolling sphere viscometry	–	23.51 mPa·s
363.15 K, 102500 kPa, Falling or rolling sphere viscometry	–	23.47 mPa·s
363.15 K, 124000 kPa, Falling or rolling sphere viscometry	–	27.54 mPa·s
363.15 K, 125400 kPa, Falling or rolling sphere viscometry	–	27.86 mPa·s
363.15 K, 147300 kPa, Falling or rolling sphere viscometry	–	32.93 mPa·s
363.15 K, 149300 kPa, Falling or rolling sphere viscometry	–	33.43 mPa·s
363.15 K, 172900 kPa, Falling or rolling sphere viscometry	–	39.05 mPa·s
363.15 K, 200700 kPa, Falling or rolling sphere viscometry	–	47.56 mPa·s
363.15 K, 212300 kPa, Falling or rolling sphere viscometry	–	51.41 mPa·s
